tested on: renal carcinoma cells (786-O); experiment: In vitro potency (CellTiter-Glo, 96 h) on 786-O; type: cell-based; details: Homo sapiens, 786-0, 96 h, CPT free drugs; CellTiter-Glo after 96 h exposure; read-out: 786-O IC50
Procedure, shortened: (§1)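 Log-phase cells were seeded 24 h in RPMI 1640 with 20% FBS, then exposed to serially diluted […] for 96 h. Growth inhibition was measured by CellTiter-Glo luminescence.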

Going from `CC[C@@]1(O)C(=O)OCc2c1cc1n(c2=O)Cc2c-1nc1ccc3c(c1c2CN)SCC3` [Compound 2av] to `CC[C@@]1(O)C(=O)OCc2c1cc1n(c2=O)Cc2c-1nc1cc(F)c(C)c(-c3ccc(O)cc3)c1c2CN` [Compound 6f], the IC50 rises from 22 nM to 97 nM (4.4-fold).

In the case of `CC[C@@]1(O)C(=O)OCc2c1cc1n(c2=O)Cc2c-1nc1cc3c(cc1c2Cn1ccnc1)OCO3` [Compound 7ai], the IC50 is reported as 12 nM.

same assay, conditions: Homo sapiens, 786-0, 96 h, read-out: 786-O IC50

Work on `CC[C@@]1(O)C(=O)OCc2c1cc1n(c2=O)Cc2c-1nc1cc3c(cc1c2CO)CCO3` [Compound 35] yielded an IC50 of 4 nM.

tested on: pancreatic cancer cells (BxPC3); experiment: In vitro potency (CellTiter-Glo, 96 h) on BxPC3; type: cell-based; details: Homo sapiens, BXPC-3, 96 h, CPT free drugs; CellTiter-Glo after 96 h exposure; read-out: BxPC3 IC50
Procedure, shortened: as §1

`CC[C@@]1(O)C(=O)OCc2c1cc1n(c2=O)Cc2c-1nc1ccc3c(c1c2CN)SCC3` [Compound 2av] and `CC[C@@]1(O)C(=O)OCc2c1cc1n(c2=O)Cc2c-1nc1cc(F)c(C)c(-c3ccc(O)cc3)c1c2CN` [Compound 6f] are within 1.5-fold of each other in IC50: 34 nM for the first, 46 nM for the second.

Compound `CC[C@@]1(O)C(=O)OCc2c1cc1n(c2=O)Cc2c-1nc1cc3c(cc1c2Cn1ccnc1)OCO3` [Compound 7ai] has an IC50 of 17 nM.

same assay, conditions: Homo sapiens, BXPC-3, 96 h, read-out: BxPC3 IC50

`CC[C@@]1(O)C(=O)OCc2c1cc1n(c2=O)Cc2c-1nc1cc3c(cc1c2CO)CCO3` [Compound 35] gave an IC50 of 6 nM.

tested on: anaplastic large cell lymphoma cells (DELBVR); experiment: In vitro potency (CellTiter-Glo, 96 h) on DELBVR; type: cell-based; details: 96 h, CPT free drugs; CellTiter-Glo after 96 h exposure; read-out: DELBVR IC50
Procedure, shortened: as §1

First: CC[C@@]1(O)C(=O)OCc2c1cc1n(c2=O)Cc2c-1nc1ccc3c(c1c2CN)SCC3 [Compound 2av]
Second: CC[C@@]1(O)C(=O)OCc2c1cc1n(c2=O)Cc2c-1nc1cc(F)c(C)c(-c3ccc(O)cc3)c1c2CN [Compound 6f]
The IC50 of the first is 2-fold lower: 4 nM for the first, 8 nM for the second. The first is the more potent here.

In the case of `CC[C@@]1(O)C(=O)OCc2c1cc1n(c2=O)Cc2c-1nc1cc3c(cc1c2Cn1ccnc1)OCO3` [Compound 7ai], the IC50 is reported as 3 nM.

same assay, conditions: 96 h, read-out: DELBVR IC50

`CC[C@@]1(O)C(=O)OCc2c1cc1n(c2=O)Cc2c-1nc1cc3c(cc1c2CO)CCO3` [Compound 35] showed an IC50 of 1 nM.

tested on: B-lymphocyte cancer cells (SU-DHL4); experiment: In vitro potency (CellTiter-Glo, 96 h) on SU-DHL4; type: cell-based; details: Homo sapiens, SU-DHL-4, 96 h, CPT free drugs; CellTiter-Glo after 96 h exposure; read-out: SU-DHL-4 IC50
Procedure, shortened: as §1

Going from `CC[C@@]1(O)C(=O)OCc2c1cc1n(c2=O)Cc2c-1nc1ccc3c(c1c2CN)SCC3` [Compound 2av] to `CC[C@@]1(O)C(=O)OCc2c1cc1n(c2=O)Cc2c-1nc1cc(F)c(C)c(-c3ccc(O)cc3)c1c2CN` [Compound 6f], the IC50 rises from 8 nM to 19 nM (2.4-fold).

In the case of `CC[C@@]1(O)C(=O)OCc2c1cc1n(c2=O)Cc2c-1nc1cc3c(cc1c2Cn1ccnc1)OCO3` [Compound 7ai], the IC50 is reported as 3 nM.

same assay, conditions: Homo sapiens, SU-DHL-4, 96 h, read-out: SU-DHL-4 IC50

In the case of `CC[C@@]1(O)C(=O)OCc2c1cc1n(c2=O)Cc2c-1nc1cc3c(cc1c2CO)CCO3` [Compound 35], the IC50 is reported as 1 nM.

tested on: acute myeloid leukemia cells (MOLM-13); experiment: In vitro potency (CellTiter-Glo, 96 h) on MOLM-13; type: cell-based; details: Homo sapiens, MOLM-13, 96 h, CPT free drugs; CellTiter-Glo after 96 h exposure; read-out: MOLM-13 IC50
Procedure, shortened: as §1

Going from `CC[C@@]1(O)C(=O)OCc2c1cc1n(c2=O)Cc2c-1nc1ccc3c(c1c2CN)SCC3` [Compound 2av] to `CC[C@@]1(O)C(=O)OCc2c1cc1n(c2=O)Cc2c-1nc1cc(F)c(C)c(-c3ccc(O)cc3)c1c2CN` [Compound 6f], the IC50 falls from 236 nM to 51 nM (4.6-fold).

Work on `CC[C@@]1(O)C(=O)OCc2c1cc1n(c2=O)Cc2c-1nc1cc3c(cc1c2Cn1ccnc1)OCO3` [Compound 7ai] yielded an IC50 of 9 nM.

same assay, conditions: Homo sapiens, MOLM-13, 96 h, read-out: MOLM-13 IC50

With `CC[C@@]1(O)C(=O)OCc2c1cc1n(c2=O)Cc2c-1nc1cc3c(cc1c2CO)CCO3` [Compound 35] the IC50 was 22 nM.

tested on: anaplastic large cell lymphoma cells (Karpas299); experiment: In vitro potency (CellTiter-Glo, 96 h) on Karpas299; type: cell-based; details: Homo sapiens, KARPAS-299, 96 h, CPT free drugs; CellTiter-Glo after 96 h exposure; read-out: Karpas299 IC50
Procedure, shortened: as §1

First: CC[C@@]1(O)C(=O)OCc2c1cc1n(c2=O)Cc2c-1nc1ccc3c(c1c2CN)SCC3 [Compound 2av]
Second: CC[C@@]1(O)C(=O)OCc2c1cc1n(c2=O)Cc2c-1nc1cc(F)c(C)c(-c3ccc(O)cc3)c1c2CN [Compound 6f]
The IC50 of the first is 2.3-fold lower: 26 nM for the first, 59 nM for the second.

`CC[C@@]1(O)C(=O)OCc2c1cc1n(c2=O)Cc2c-1nc1cc3c(cc1c2Cn1ccnc1)OCO3` [Compound 7ai] showed an IC50 of 6 nM.

same assay, conditions: Homo sapiens, KARPAS-299, 96 h, read-out: Karpas299 IC50

Work on `CC[C@@]1(O)C(=O)OCc2c1cc1n(c2=O)Cc2c-1nc1cc3c(cc1c2CO)CCO3` [Compound 35] yielded an IC50 of 4 nM.

tested on: breast cancer cells (MDA-MB-231); experiment: In vitro potency (CellTiter-Glo, 96 h) on MDA-MB-231; type: cell-based; details: Homo sapiens, MDA-MB-231, 96 h, CPT free drugs; CellTiter-Glo after 96 h exposure; read-out: MDAMB 231 IC50
Procedure, shortened: as §1

Compared with `CC[C@@]1(O)C(=O)OCc2c1cc1n(c2=O)Cc2c-1nc1ccc3c(c1c2CN)SCC3` [Compound 2av], `CC[C@@]1(O)C(=O)OCc2c1cc1n(c2=O)Cc2c-1nc1cc(F)c(C)c(-c3ccc(O)cc3)c1c2CN` [Compound 6f] is 15-fold higher in IC50: 9 nM for the first, 139 nM for the second. The first is the more potent here.

`CC[C@@]1(O)C(=O)OCc2c1cc1n(c2=O)Cc2c-1nc1cc3c(cc1c2Cn1ccnc1)OCO3` [Compound 7ai] gave an IC50 of 52 nM.

same assay, conditions: Homo sapiens, MDA-MB-231, 96 h, read-out: MDAMB 231 IC50

In the case of `CC[C@@]1(O)C(=O)OCc2c1cc1n(c2=O)Cc2c-1nc1cc3c(cc1c2CO)CCO3` [Compound 35], the IC50 is reported as 5 nM.

tested on: anaplastic large cell lymphoma cells (DEL); experiment: In vitro potency (CellTiter-Glo, 96 h) on DEL; type: cell-based; details: 96 h, CPT free drugs; CellTiter-Glo after 96 h exposure; read-out: DEL IC50
Procedure, shortened: as §1

Compared with `CC[C@@]1(O)C(=O)OCc2c1cc1n(c2=O)Cc2c-1nc1ccc3c(c1c2CN)SCC3` [Compound 2av], `CC[C@@]1(O)C(=O)OCc2c1cc1n(c2=O)Cc2c-1nc1cc(F)c(C)c(-c3ccc(O)cc3)c1c2CN` [Compound 6f] is 1.8-fold higher in IC50: 5 nM for the first, 9 nM for the second.

With `CC[C@@]1(O)C(=O)OCc2c1cc1n(c2=O)Cc2c-1nc1cc3c(cc1c2Cn1ccnc1)OCO3` [Compound 7ai] the IC50 was 1 nM.

same assay, conditions: 96 h, read-out: DEL IC50

For `CC[C@@]1(O)C(=O)OCc2c1cc1n(c2=O)Cc2c-1nc1cc3c(cc1c2CO)CCO3` [Compound 35], the IC50 was 0.6 nM.

tested on: melanoma cells (A2058); experiment: In vitro potency (CellTiter-Glo, 96 h) on A2058; type: cell-based; details: Homo sapiens, A2058, 96 h, CPT free drugs; CellTiter-Glo after 96 h exposure; read-out: A2058 IC50
Description: (§2) In vitro potency was assessed on multiple cancer cell lines. All cell lines were authenticated by STR profiling at IDEXX Bioresearch and cultured for no more than 2 months after resuscitation. Cells cultured in log-phase growth were seeded for 24 hours in 96-well plates containing […] RPMI 1640 supplemented with 20% FBS. Serial dilutions of antibody-drug conjugates in cell culture media were prepared at 4x working concentrations, and 50 μL of each dilution was added to the 96-well plates. Following addition of test articles, cells were incubated with test articles for 4 days at […]. After 96 hours, growth inhibition was assessed by CellTiterGlo® (Promega, Madison, WI) and luminescence was measured on a plate reader.
(§3) Cell viability was determined by CellTiter-Glo staining after 96h exposure to ADC. ND=Not Determined. In the following tables, “Ex_” refers to a drug linker number. For example, “Ag4-Ex_4a” refers to a conjugate of an Ag4 antibody with drug linker 4a.

Going from `CC[C@@]1(O)C(=O)OCc2c1cc1n(c2=O)Cc2c-1nc1ccc3c(c1c2CN)SCC3` [Compound 2av] to `CC[C@@]1(O)C(=O)OCc2c1cc1n(c2=O)Cc2c-1nc1cc(F)c(C)c(-c3ccc(O)cc3)c1c2CN` [Compound 6f], the IC50 rises from 4 nM to 17 nM (4.2-fold). The first is the more potent here.

In the case of `CC[C@@]1(O)C(=O)OCc2c1cc1n(c2=O)Cc2c-1nc1cc3c(cc1c2Cn1ccnc1)OCO3` [Compound 7ai], the IC50 is reported as 3 nM.

same assay, conditions: Homo sapiens, A2058, 96 h, read-out: A2058 IC50

With `CC[C@@]1(O)C(=O)OCc2c1cc1n(c2=O)Cc2c-1nc1cc3c(cc1c2CO)CCO3` [Compound 35] the IC50 was 2 nM.

tested on: not listed separately; experiment: In vitro potency (CellTiter-Glo, 96 h) on Ls174T; type: cell-based; details: Homo sapiens, LS174T, 96 h, read-out: Ls174T IC50
Procedure, shortened: as §1

Compound `CC[C@@]1(O)C(=O)OCc2c1cc1n(c2=O)Cc2c-1nc1cc3c(cc1c2CO)CCO3` [Compound 35] has an IC50 of 3 nM.

same assay, conditions: Homo sapiens, LS174T; CPT free drugs; CellTiter-Glo after 96 h exposure; read-out: Ls174T IC50

Going from `CC[C@@]1(O)C(=O)OCc2c1cc1n(c2=O)Cc2c-1nc1ccc3c(c1c2CN)SCC3` [Compound 2av] to `CC[C@@]1(O)C(=O)OCc2c1cc1n(c2=O)Cc2c-1nc1cc(F)c(C)c(-c3ccc(O)cc3)c1c2CN` [Compound 6f], the IC50 rises from 11 nM to > 1000 nM. The first is the more potent here.

Work on `CC[C@@]1(O)C(=O)OCc2c1cc1n(c2=O)Cc2c-1nc1cc3c(cc1c2Cn1ccnc1)OCO3` [Compound 7ai] yielded an IC50 of 8 nM.

tested on: Hodgkin's lymphoma cells (L540cy); experiment: In vitro potency (CellTiter-Glo, 96 h) on L540cy; type: cell-based; details: L540cy, 96 h, CPT free drugs; CellTiter-Glo after 96 h exposure; read-out: L540cy IC50
Procedure, shortened: as §1

Compared with `CC[C@@]1(O)C(=O)OCc2c1cc1n(c2=O)Cc2c-1nc1ccc3c(c1c2CN)SCC3` [Compound 2av], `CC[C@@]1(O)C(=O)OCc2c1cc1n(c2=O)Cc2c-1nc1cc(F)c(C)c(-c3ccc(O)cc3)c1c2CN` [Compound 6f] is 4.6-fold higher in IC50: 5 nM for the first, 23 nM for the second. The first is the more potent here.

`CC[C@@]1(O)C(=O)OCc2c1cc1n(c2=O)Cc2c-1nc1cc3c(cc1c2Cn1ccnc1)OCO3` [Compound 7ai] gave an IC50 of 4 nM.

same assay, conditions: L540cy, 96 h, read-out: L540cy IC50

For `CC[C@@]1(O)C(=O)OCc2c1cc1n(c2=O)Cc2c-1nc1cc3c(cc1c2CO)CCO3` [Compound 35], the IC50 was 2 nM.

tested on: non-small-cell lung cancer cells (Calu1); experiment: In vitro potency (CellTiter-Glo, 96 h) on Calu1; type: cell-based; details: Homo sapiens, Calu-1, 96 h, CPT free drugs; CellTiter-Glo after 96 h exposure; read-out: Calu1 IC50
Description: as §2, §3

Going from `CC[C@@]1(O)C(=O)OCc2c1cc1n(c2=O)Cc2c-1nc1ccc3c(c1c2CN)SCC3` [Compound 2av] to `CC[C@@]1(O)C(=O)OCc2c1cc1n(c2=O)Cc2c-1nc1cc(F)c(C)c(-c3ccc(O)cc3)c1c2CN` [Compound 6f], the IC50 rises from 25 nM to 294 nM (12-fold). The first is the more potent here.

In the case of `CC[C@@]1(O)C(=O)OCc2c1cc1n(c2=O)Cc2c-1nc1cc3c(cc1c2Cn1ccnc1)OCO3` [Compound 7ai], the IC50 is reported as 81 nM.

same assay, conditions: Homo sapiens, Calu-1, 96 h, read-out: Calu1 IC50

Work on `CC[C@@]1(O)C(=O)OCc2c1cc1n(c2=O)Cc2c-1nc1cc3c(cc1c2CO)CCO3` [Compound 35] yielded an IC50 of 9 nM.
